These compounds were tested against T1, human GLP-1R (Homo sapiens, UniProt P43220) (assay: GLP-1R cAMP assay (Example B1a, HTRF, 30 min at room temperature)). Conditions: cAMP accumulation in HEK293 expressing human GLP-1R, no BETP, 30 min room temperature (Method B1a, compounds ID 1-609), Table 1; read-out: EC50.
T1 construct: host or cells: HEK293
Assay type: cell-based
Summary of the method: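 Competitive HTRF read-out of cAMP after 30 min room-temperature stimulation, BETP absent, of human GLP-1R-HEK293 cells (1,000/well) in HEPES buffer with 500 μM IBMX and 0.1% BSA. Activation normalised to GLP-1(7-37) positive control. EC50 from 4-parameter non-linear regression.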

T1 sequence (P43220 24-463): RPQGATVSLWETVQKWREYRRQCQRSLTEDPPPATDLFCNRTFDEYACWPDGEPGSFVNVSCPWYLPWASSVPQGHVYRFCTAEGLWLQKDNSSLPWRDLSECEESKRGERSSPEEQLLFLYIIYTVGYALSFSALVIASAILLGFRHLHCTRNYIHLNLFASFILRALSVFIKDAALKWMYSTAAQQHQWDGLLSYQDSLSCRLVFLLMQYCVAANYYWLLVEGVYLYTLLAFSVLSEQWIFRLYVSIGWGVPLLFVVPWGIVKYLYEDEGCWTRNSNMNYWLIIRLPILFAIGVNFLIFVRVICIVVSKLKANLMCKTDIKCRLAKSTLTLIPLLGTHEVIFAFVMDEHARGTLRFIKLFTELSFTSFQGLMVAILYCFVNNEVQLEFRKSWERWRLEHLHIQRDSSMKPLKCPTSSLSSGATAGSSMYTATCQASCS

Compound	EC50
Cc1cc(-n2nc3c(c2-n2ccn(-c4ccc(C(N)=O)c(F)c4)c2=O)[C@@H]2CC[C@H](C3)N2C(=O)c2cc3cc([C@H]4CCOC(C)(C)C4)ccc3n2[C@@]2(c3noc(=O)[nH]3)C[C@@H]2C)cc(C)c1F [Compound 412, 4-[3-[(1S,8R)-11-[5-[(4S)-2,2-dimethyltetrahydropyran-4-yl]-1-[(1S,2S)-2-methyl-1-(5-oxo-4H-1,2,4-oxadiazol-3-yl)cyclopropyl]indole-2-carbonyl]-4-(4-fluoro-3,5-dimethyl-phenyl)-4,5,11-triazatricyclo[6.2.1.02,6]undeca-2,5-dien-3-yl]-2-oxo-imidazol-1-yl]-2-fluoro-benzamide]	551 nM
Cc1cc(-n2nc3c(c2-n2ccn(-c4ccc5c(cnn5C)c4F)c2=O)[C@@H]2CC[C@H](C3)N2C(=O)c2cc3cc([C@@H]4CCOC5(CC5)C4)ccc3n2[C@]2(c3noc(=O)[nH]3)C[C@@H]2C)cc(C)c1F [Compound 529, 3-[(1R,2S)-1-[2-[(1S,8R)-4-(4-fluoro-3,5-dimethyl-phenyl)-3-[3-(4-fluoro-1-methyl-indazol-5-yl)-2-oxo-imidazol-1-yl]-4,5,11-triazatricyclo[6.2.1.02,6]undeca-2,5-diene-11-carbonyl]-5-[(7R)-4-oxaspiro[2.5]octan-7-yl]indol-1-yl]-2-methyl-cyclopropyl]-4H-1,2,4-oxadiazol-5-one]	≥ 10000 nM
Cc1cc(-n2nc3c(c2-n2ccn(-c4ccc5c(cnn5C)c4F)c2=O)[C@@H]2CCC[C@H](C3)N2S(=O)(=O)c2cc3cc(N4CCOC5(CC5)C4)ccc3n2[C@@]2(c3noc(=O)[nH]3)C[C@@H]2C)cc(C)c1F [Compound 535, 3-[(1S,2S)-1-[2-[[(1S,8R)-4-(4-fluoro-3,5-dimethyl-phenyl)-3-[3-(4-fluoro-1-methyl-indazol-5-yl)-2-oxo-imidazol-1-yl]-4,5,12-triazatricyclo[6.3.1.02,6]dodeca-2,5-dien-12-yl]sulfonyl]-5-(4-oxa-7-azaspiro[2.5]octan-7-yl)indol-1-yl]-2-methyl-cyclopropyl]-4H-1,2,4-oxadiazol-5-one]	1890 nM
Cc1cc(-n2nc3c(c2-c2ncn(-c4ccc5c(cnn5C)c4F)c2C)[C@H](C)N(C(=O)c2cc4cc([C@H]5CCOC(C)(C)C5)ccc4n2C2(c4noc(=O)[nH]4)CC2)CC3)cc(C)c1F [Compound 30, 3-(1-(5-((S)-2,2-dimethyltetrahydro-2H-pyran-4-yl)-2-((4S)-3-(1-(4-fluoro-1-methyl-1H-indazol-5-yl)-5-methyl-1H-imidazol-4-yl)-2-(4-fluoro-3,5-dimethylphenyl)-4-methyl-4,5,6,7-tetrahydro-2H-pyrazolo[4,3-c]pyridine-5-carbonyl)-1H-indol-1-yl)cyclopropyl)-1,2,4-oxadiazol-5 (4H)-one]	> 10000 nM
Cc1cc(-n2nc3c(c2-n2ccn(-c4ccc5c(cnn5C)c4F)c2=O)[C@@H]2CC[C@H](C3)N2C(=O)c2cc3cc([C@@H]4COC(C)(C)C4)ccc3n2[C@@]2(c3noc(=O)[nH]3)C[C@@H]2C)cc(C)c1F [Compound 425, 3-[(1S,2S)-1-[5-[(3R)-5,5-dimethyltetrahydrofuran-3-yl]-2-[(1S,8R)-4-(4-fluoro-3,5-dimethyl-phenyl)-3-[3-(4-fluoro-1-methyl-indazol-5-yl)-2-oxo-imidazol-1-yl]-4,5,11-triazatricyclo[6.2.1.02,6]undeca-2,5-diene-11-carbonyl]indol-1-yl]-2-methyl-cyclopropyl]-4H-1,2,4-oxadiazol-5-one]	292 nM
Cc1cc(-n2nc3c(c2-n2ccn(-c4ccc5[nH]ncc5c4F)c2=O)[C@@H]2CC[C@H](C3)N2C(=O)c2cc3cc([C@H]4CCOC5(CC5)C4)ccc3n2[C@@]2(c3noc(=O)[nH]3)C[C@@H]2C)cc(C)c1F [Compound 436, 3-((1S,2S)-1-(2-((4S,7R)-3-(3-(4-fluoro-1H-indazol-5-yl)-2-oxo-2,3-dihydro-1H-imidazol-1-yl)-2-(4-fluoro-3,5-dimethylphenyl)-2,4,5,6,7,8-hexahydro-4,7-epiminocyclohepta [c]pyrazole-9-carbonyl)-5-((S)-4-oxaspiro[2.5]octan-7-yl)-1H-indol-1-yl)-2-methylcyclopropyl)-1,2,4-oxadiazol-5 (4H)-one]	70 nM
Cc1cc(-n2nc3c(c2-n2ccn(-c4ccc5c(cnn5C)c4F)c2=O)[C@@H]2CC[C@H](C3)N2C(=O)c2cc3cc(N4CCOC(C)(C)C4)ccc3n2[C@@]2(c3noc(=O)[nH]3)C[C@@H]2C)cc(C)c1F [Compound 229, 3-((1S,2S)-1-(5-(2,2-dimethylmorpholino)-2-((4S,7R)-3-(3-(4-fluoro-1-methyl-1H-indazol-5-yl)-2-oxo-2,3-dihydro-1H-imidazol-1-yl)-2-(4-fluoro-3,5-dimethylphenyl)-2,4,5,6,7,8-hexahydro-4,7-epiminocyclohepta [c]pyrazole-9-carbonyl)-1H-indol-1-yl)-2-methylcyclopropyl)-1,2,4-oxadiazol-5 (4H)-one]	167 nM
Cc1cc(-n2nc3c(c2-n2ccn(-c4ccc5c(cnn5C)c4F)c2=O)[C@H](C)N(C(=O)c2cc4cc([C@H]5CCOC6(CC6)C5)ccc4n2[C@@]2(c4noc(=O)[nH]4)C[C@@H]2C)CCC3)cc(C)c1F [Compound 606, 3-((1S,2S)-1-(2-((S)-3-(3-(4-fluoro-1-methyl-1H-indazol-5-yl)-2-oxo-2,3-dihydro-1H-imidazol-1-yl)-2-(4-fluoro-3,5-dimethylphenyl)-4-methyl-2,4,5,6,7,8-hexahydropyrazolo[4,3-c]azepine-5-carbonyl)-5-((S)-4-oxaspiro[2.5]octan-7-yl)-1H-indol-1-yl)-2-methylcyclopropyl)-1,2,4-oxadiazol-5 (4H)-one]	80.4 nM
Cc1cc(-n2nc3c(c2-n2ccn(-c4ccc5c(cnn5C)c4F)c2=O)[C@@H]2CC[C@H](C3)N2C(=O)c2cc3cc([C@@H]4CCOC4(C)C)ccc3n2[C@@]2(c3noc(=O)[nH]3)C[C@@H]2C)cc(C)c1F [Compound 420, 3-[(1S,2S)-1-[5-[(3S)-2,2-dimethyltetrahydrofuran-3-yl]-2-[(1S,8R)-4-(4-fluoro-3,5-dimethyl-phenyl)-3-[3-(4-fluoro-1-methyl-indazol-5-yl)-2-oxo-imidazol-1-yl]-4,5,11-triazatricyclo[6.2.1.02,6]undeca-2,5-diene-11-carbonyl]indol-1-yl]-2-methyl-cyclopropyl]-4H-1,2,4-oxadiazol-5-one]	650 nM
CNC(=O)Cc1ccc(-n2ccn(-c3c4c(nn3-c3cc(C)c(F)c(C)c3)C[C@H]3CCC[C@@H]4N3C(=O)c3cc4cc([C@H]5CCOC(C)(C)C5)ccc4n3[C@@]3(c4noc(=O)[nH]4)C[C@@H]3C)c2=O)cc1 [Compound 544, 2-[4-[3-[(1S,8R)-12-[5-[(4S)-2,2-dimethyltetrahydropyran-4-yl]-1-[(1S,2S)-2-methyl-1-(5-oxo-4H-1,2,4-oxadiazol-3-yl)cyclopropyl]indole-2-carbonyl]-4-(4-luoro-3,5-dimethyl-phenyl)-f4,5,12-triazatricyclo[6.3.1.02,6]dodeca-2,5-dien-3-yl]-2-oxo-imidazol-1-yl]phenyl]-N-methyl-acetamide]	≥ 10000 nM
Cc1cc(-n2nc3c(c2-n2ccn(-c4ccc5c(cnn5C)c4F)c2=O)[C@@H]2CC[C@H](C3)N2C(=O)c2cc3cc(C4CCOC4(C)C)ccc3n2[C@@]2(c3noc(=O)[nH]3)C[C@@H]2C)cc(C)c1F (stereo partly drawn) [Compound 413, 3-[(1S,2S)-1-[5-(2,2-dimethyltetrahydrofuran-3-yl)-2-[(1S,8R)-4-(4-fluoro-3,5-dimethyl-phenyl)-3-[3-(4-fluoro-1-methyl-indazol-5-yl)-2-oxo-imidazol-1-yl]-4,5,11-triazatricyclo[6.2.1.02,6]undeca-2,5-diene-11-carbonyl]indol-1-yl]-2-methyl-cyclopropyl]-4H-1,2,4-oxadiazol-5-one]	1770 nM
Cc1cc(-n2nc3c(c2-n2ccn(-c4ccc5c(cnn5C)c4C)c2=O)[C@@H]2CC[C@H](C3)N2C(=O)c2cc3cc([C@H]4CCOC(C)(C)C4)ccc3n2[C@@]2(c3noc(=O)[nH]3)C[C@@H]2C)cc(C)c1F [Compound 305, 3-((1S,2S)-1-(2-((45,7R)-3-(3-(1,4-dimethyl-1H-indazol-5-yl)-2-oxo-2,3-dihydro-1H-imidazol-1-yl)-2-(4-fluoro-3,5-dimethylphenyl)-2,4,5,6,7,8-hexahydro-4,7-epiminocyclohepta [c]pyrazole-9-carbonyl)-5-((S)-2,2-dimethyltetrahydro-2H-pyran-4-yl)-1H-indol-1-yl)-2-methylcyclopropyl)-1,2,4-oxadiazol-5 (4H)-one]	206 nM
Cc1cc(-n2nc3c(c2-n2ccn(-c4ccc5c(cnn5C)c4F)c2=O)CN(S(=O)(=O)c2cc4cc(C5CCOC(C)(C)C5)ccc4n2[C@@]2(c4noc(=O)[nH]4)C[C@@H]2C)CCC3)cc(C)c1F (stereo partly drawn) [Compound 508, 3-[(1S,2S)-1-[5-(2,2-dimethyltetrahydropyran-4-yl)-2-[[2-(4-fluoro-3,5-dimethyl-phenyl)-3-[3-(4-fluoro-1-methyl-indazol-5-yl)-2-oxo-imidazol-1-yl]-4,6,7,8-tetrahydropyrazolo[4,3-c]azepin-5-yl]sulfonyl]indol-1-yl]-2-methyl-cyclopropyl]-4H-1,2,4-oxadiazol-5-one]	≥ 10000 nM
Cc1cc(-n2nc3c(c2N2C(=O)CN(c4ccc5c(cnn5C)c4F)C2=O)[C@H](C)N(C(=O)c2cc4cc([C@H]5CCOC(C)(C)C5)ccc4n2[C@@]2(c4noc(=O)[nH]4)C[C@@H]2C)CC3)cc(C)c1F [Compound 23, 3-((S)-5-(5-((S)-2,2-dimethyltetrahydro-2H-pyran-4-yl)-1-((1S,2S)-2-methyl-1-(5-oxo-4,5-dihydro-1,2,4-oxadiazol-3-yl)cyclopropyl)-1H-indole-2-carbonyl)-2-(4-fluoro-3,5-dimethylphenyl)-4-methyl-4,5,6,7-tetrahydro-2H-pyrazolo[4,3-c]pyridin-3-yl)-1-(4-fluoro-1-methyl-1H-indazol-5-yl) imidazolidine-2,4-dione]	361 nM
Cc1cc(-n2nc3c(c2-n2ccn(-c4ccc5c(cnn5C)c4F)c2=O)[C@@H]2CC[C@H](C3)N2C(=O)c2cc3ccc(C4CCOCC4)cc3nc2C2(c3noc(=O)[nH]3)CC2C)cc(C)c1F (single isomer, unassigned) [Compound 237]	123 nM

Reference: patent US12617783B2, “Heterocyclic GLP-1R agonists” (BIOMEA FUSION, INC., priority 2024, dated 2026)
